From patent US6258830A, “Stable gel formulation for topical treatment of skin conditions” (Allergan Sales, Inc., priority 1999, dated 2001)
In brackets after ≈: the same amount, converted by molar mass.

How the values were obtained:
[1] = Treatment of acne and psoriasis; set-up: species or system humans; conditions: in vivo
[2] = Saturated solubility of AGN in the vehicle of the gels (HPLC), with Student's t-test against gel B; format: physicochemical; conditions: for solubility: gel vehicle with propionic acid, propionic acid for carbomer
Procedure: To determine the saturated solubility of the drug in the vehicle of each of the 18 gel formulations, solvent systems containing the same ingredients as the gels were prepared. The saturated solubility was determined once in solutions of the vehicle without carbomer and base, and another time by substituting propionic acid for carbomer in order to ease filtration of the solution while keeping the ionic strength of the solution as close to that of the gel as possible. The solutions were filtered through a 0.45 μm filter to remove any crystals which may have formed. The resulting solutions were then diluted and their drug content was assayed using High Performance Liquid Chromatography (HPLC) as described in Method HL036.
(§1) The saturated solubility values, and slopes of the line obtained from the plot of % drug released vs. square root of time for each gel were analyzed statistically. […] RS/Discover® was used to calculate equations which fit the data and to construct response surfaces.

[3] = Stability of AGN formulations; format: physicochemical
[4] = Solubility of AGN in PEG 400; format: physicochemical; conditions: peg 400, organic solvent or mixture
[5] = Solubility of AGN in various aqueous solutions at 35° ± 0.5° C. (Table I); format: physicochemical
[6] = In vitro release of AGN from the 0.1% gels, slope of % drug released vs. square root of time; format: physicochemical; conditions: Table XVIII, beyond release of 10% of the drug
Procedure: The release of AGN through each of the 0.1% gels was studied using a previously developed release method. The collected fractions were then assayed directly using HPLC Method HL036.
The data generated from the assay of the collected fractions for each gel were used to plot the release profile of the drug as the % drug released vs. square root of time. For each release profile, the slope of the linear region containing at least 6 points was calculated using linear regression. The standard deviation and correlation coefficient of each slope was also calculated.
as §1
Drug release was studied from all […] formulated gels as described previously. The release profiles for each gel were an average of six runs, and were plotted as % Drug released vs. Square root of time.
In order to compare the release rates of drug from each formulation, the slope of the linear portion of the plot of % Drug released vs. Square root of time was computed for each of the 18 gels. The slope for each plot was obtained as an average of six runs and based on a correlation coefficient (R^2)>0.94800.

Q: For CCOC(=O)c1ccc(C#Cc2ccc3c(c2)C(C)(C)CCS3)nc1 [AGN], which “activity in the treatment of acne and psoriasis” value [1] is on record?
A: active in the treatment of acne and psoriasis

Q: And the “drug present in the aqueous based gel in the form of solid particles” value ([2]; from solubility data)?
A: approximately 90%

Q: And the solubility ([2]; hexylene glycol 0%, polysorbate 40 0.0%, poloxamer 407 0.0%)?
A: 14.5 ± 0.3 µg/mL (≈ 41.3 µM)

Q: And the solubility ([2]; hexylene glycol 0%, polysorbate 40 0.0%, poloxamer 407 0.2%)?
A: 67.9 ± 4.4 µg/mL (≈ 193 µM)

Q: And the solubility ([2]; hexylene glycol 0%, polysorbate 40 0.0%, poloxamer 407 0.4%)?
A: 87.4 ± 6.6 µg/mL (≈ 249 µM)

Q: And the solubility ([2]; hexylene glycol 0%, polysorbate 40 0.2%, poloxamer 407 0.0%)?
A: 52.3 ± 2.7 µg/mL (≈ 149 µM)

Q: And the solubility ([2]; hexylene glycol 0%, polysorbate 40 0.2%, poloxamer 407 0.2%)?
A: 69.7 ± 3.2 µg/mL (≈ 198 µM)

Q: And the solubility ([2]; hexylene glycol 0%, polysorbate 40 0.2%, poloxamer 407 0.4%)?
A: 80 ± 4 µg/mL (≈ 228 µM)

Q: And the solubility ([2]; hexylene glycol 0%, polysorbate 40 0.4%, poloxamer 407 0.0%)?
A: 89.3 ± 8.8 µg/mL (≈ 254 µM)

Q: And the solubility ([2]; hexylene glycol 0%, polysorbate 40 0.4%, poloxamer 407 0.2%)?
A: 77.5 ± 0.8 µg/mL (≈ 221 µM)

Q: What about the solubility ([2]; hexylene glycol 0%, polysorbate 40 0.4%, poloxamer 407 0.4%) of the same molecule?
A: 86.7 ± 6 µg/mL (≈ 247 µM)

Q: And the solubility ([2]; hexylene glycol 2%, polysorbate 40 0.0%, poloxamer 407 0.0%)?
A: 20.9 ± 1.7 µg/mL (≈ 59.5 µM)

Q: And the solubility ([2]; hexylene glycol 2%, polysorbate 40 0.0%, poloxamer 407 0.2%)?
A: 73.7 ± 9 µg/mL (≈ 210 µM)

Q: What about the solubility ([2]; hexylene glycol 2%, polysorbate 40 0.0%, poloxamer 407 0.4%) of the same molecule?
A: 86.3 ± 2.6 µg/mL (≈ 246 µM)

Q: What about the solubility ([2]; hexylene glycol 2%, polysorbate 40 0.2%, poloxamer 407 0.0%) of the same molecule?
A: 75.9 ± 3.5 µg/mL (≈ 216 µM)

Q: What about the solubility ([2]; hexylene glycol 2%, polysorbate 40 0.2%, poloxamer 407 0.2%) of the same molecule?
A: 93.8 ± 0.1 µg/mL (≈ 267 µM)

Q: What about the solubility ([2]; hexylene glycol 2%, polysorbate 40 0.2%, poloxamer 407 0.4%) of the same molecule?
A: 102 ± 2.9 µg/mL (≈ 290 µM)

Q: What about the solubility ([2]; hexylene glycol 2%, polysorbate 40 0.4%, poloxamer 407 0.0%) of the same molecule?
A: 98 ± 11.7 µg/mL (≈ 279 µM)

Q: What about the solubility ([2]; hexylene glycol 2%, polysorbate 40 0.4%, poloxamer 407 0.2%) of the same molecule?
A: 130 ± 6.2 µg/mL (≈ 370 µM)

Q: And the solubility ([2]; hexylene glycol 2%, polysorbate 40 0.4%, poloxamer 407 0.4%)?
A: 118 ± 3.8 µg/mL (≈ 336 µM)

Q: What about the “stabilization of alcoholic solutions containing AGN” value ([3]; alcoholic solutions with BHT (preformulation report)) of the same molecule?
A: stabilized by BHT

Q: And the “stability of laboratory formulation of AGN” value ([3]; prepared without ascorbic acid)?
A: poor stability

Q: What about the solubility [4] of the same molecule?
A: 2200 µg/mL (≈ 6260 µM)

Q: What about the solubility ([5]; 0.07% Polysorbate 40, 35° C.) of the same molecule?
A: 3.7 ± 0.6 µg/mL (≈ 10.5 µM)

Q: And the solubility ([5]; 0.15% Polysorbate 40, 35° C.)?
A: 9.2 ± 1.4 µg/mL (≈ 26.2 µM)

Q: And the solubility ([5]; 0.30% Polysorbate 40, 35° C.)?
A: 18.3 ± 1.8 µg/mL (≈ 52.1 µM)

Q: And the solubility ([5]; 0.50% Polysorbate 40, 35° C.)?
A: 33.2 ± 0.3 µg/mL (≈ 94.5 µM)

Q: And the solubility ([5]; 1% Oleth-20/Water, 35° C.)?
A: 73.3 ± 3 µg/mL (≈ 209 µM)

Q: What about the solubility ([5]; 2% Oleth-20/Water, 35° C.) of the same molecule?
A: 149.2 ± 0.6 µg/mL (≈ 425 µM)

Q: And the solubility ([5]; 4% Oleth-20/Water, 35° C.)?
A: 311 ± 7 µg/mL (≈ 885 µM)

Q: What about the “Avg. Solubility” value ([5]; 20% Ethanol/Water, 35° C.) of the same molecule?
A: Not Detected

Q: What about the “Avg. Solubility” value ([5]; 20% PEG-400/Water, 35° C.) of the same molecule?
A: Not Detected

Q: And the solubility ([5]; 96% Oleth-20/Water, 35° C.)?
A: 435.2 ± 1.1 µg/mL (≈ 1240 µM)

Q: What about the “Avg. Solubility” value ([5]; 100% Water, 35° C.) of the same molecule?
A: Not Detected

Q: What about the solubility ([5]; organic solvent or mixture, 40% Ethanol/Water, 35° C.) of the same molecule?
A: 147 ± 20.9 µg/mL (≈ 419 µM)

Q: And the solubility ([5]; organic solvent or mixture, 40% PEG-400/Water, 35° C.)?
A: 4.4 ± 0.5 µg/mL (≈ 12.5 µM)

Q: And the solubility ([5]; organic solvent or mixture, 60% Ethanol/Water, 35° C.)?
A: 22235 ± 7.8 µg/mL (≈ 63300 µM)

Q: What about the solubility ([5]; organic solvent or mixture, 60% PEG-400/Water, 35° C.) of the same molecule?
A: 89.6 ± 1.1 µg/mL (≈ 255 µM)

Q: What about the solubility ([5]; organic solvent or mixture, 80% Ethanol/Water, 35° C.) of the same molecule?
A: 8220 ± 221 µg/mL (≈ 23400 µM)

Q: What about the solubility ([5]; organic solvent or mixture, 80% PEG-400/Water, 35° C.) of the same molecule?
A: 2160 ± 89.9 µg/mL (≈ 6150 µM)

Q: What about the “solubility in water (in words)” value ([5]; water) of the same molecule?
A: extremely low

Q: And the “rate of drug release over time” value [6]?
A: remains constant even after three hours
